What was measured:
[1] = molecular target: Neuronal acetylcholine receptor; alpha4/beta2 (Rattus norvegicus, UniProt P09483+P12390); experiment: Displacement of [3H]cytisine from alpha4beta2 nicotinic acetylcholine receptor in rat brain minus cerebellum membrane; format: tissue-based
[2] = molecular target: Neuronal acetylcholine receptor subunit alpha-7 (Rattus norvegicus, UniProt Q05941); experiment: Displacement of [3H]A585539 from alpha7 nicotinic acetylcholine receptor in rat brain minus cerebellum membrane; format: tissue-based
Sequence of Neuronal acetylcholine receptor subunit alpha-7 (Rattus norvegicus, UniProt Q05941) (Q05941 whole entry): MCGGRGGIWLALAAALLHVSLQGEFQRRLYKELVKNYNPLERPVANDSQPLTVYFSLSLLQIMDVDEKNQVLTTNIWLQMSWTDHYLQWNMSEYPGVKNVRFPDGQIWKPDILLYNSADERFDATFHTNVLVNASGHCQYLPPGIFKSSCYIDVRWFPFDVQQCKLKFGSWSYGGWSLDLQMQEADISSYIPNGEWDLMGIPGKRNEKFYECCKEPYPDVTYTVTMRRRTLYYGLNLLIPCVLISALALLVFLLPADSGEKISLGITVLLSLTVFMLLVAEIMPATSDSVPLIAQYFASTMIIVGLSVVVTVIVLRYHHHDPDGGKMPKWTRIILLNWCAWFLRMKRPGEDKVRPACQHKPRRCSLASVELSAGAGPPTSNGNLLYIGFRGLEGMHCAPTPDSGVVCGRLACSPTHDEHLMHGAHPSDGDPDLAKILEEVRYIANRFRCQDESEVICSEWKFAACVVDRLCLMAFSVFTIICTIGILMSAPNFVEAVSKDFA

Rattus norvegicus = species: Rattus norvegicus; experiment: Selectivity ratio of Ki for alpha7 nicotinic acetylcholine receptor to Ki for alpha4beta2 nicotinic acetylcholine receptor in rat brain minus cerebellum membrane; format: tissue-based
[3] = molecular target: T1, Neuronal acetylcholine receptor; alpha4/beta2 (Homo sapiens, UniProt P17787+P43681); experiment: Agonist activity at human recombinant alpha4beta2 nicotinic acetylcholine receptor expressed in HEK293 cells assessed as changes in intracellular calcium level by FLIPR; format: functional, cell-based
T1 sequence (P17787 whole entry): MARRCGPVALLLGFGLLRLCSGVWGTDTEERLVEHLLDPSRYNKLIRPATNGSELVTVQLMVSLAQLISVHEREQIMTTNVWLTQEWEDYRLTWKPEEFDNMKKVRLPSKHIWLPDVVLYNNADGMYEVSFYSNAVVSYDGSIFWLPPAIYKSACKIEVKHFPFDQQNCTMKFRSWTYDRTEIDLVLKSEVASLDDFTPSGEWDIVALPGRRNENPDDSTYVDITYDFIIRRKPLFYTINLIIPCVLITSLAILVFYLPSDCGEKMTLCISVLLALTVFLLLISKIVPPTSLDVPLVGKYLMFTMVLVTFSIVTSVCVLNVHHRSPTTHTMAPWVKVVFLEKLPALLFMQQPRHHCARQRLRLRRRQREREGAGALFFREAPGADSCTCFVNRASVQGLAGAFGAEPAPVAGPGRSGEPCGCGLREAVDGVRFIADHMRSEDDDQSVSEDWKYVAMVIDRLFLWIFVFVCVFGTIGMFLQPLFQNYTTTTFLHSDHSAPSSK
T1 sequence (P43681 whole entry): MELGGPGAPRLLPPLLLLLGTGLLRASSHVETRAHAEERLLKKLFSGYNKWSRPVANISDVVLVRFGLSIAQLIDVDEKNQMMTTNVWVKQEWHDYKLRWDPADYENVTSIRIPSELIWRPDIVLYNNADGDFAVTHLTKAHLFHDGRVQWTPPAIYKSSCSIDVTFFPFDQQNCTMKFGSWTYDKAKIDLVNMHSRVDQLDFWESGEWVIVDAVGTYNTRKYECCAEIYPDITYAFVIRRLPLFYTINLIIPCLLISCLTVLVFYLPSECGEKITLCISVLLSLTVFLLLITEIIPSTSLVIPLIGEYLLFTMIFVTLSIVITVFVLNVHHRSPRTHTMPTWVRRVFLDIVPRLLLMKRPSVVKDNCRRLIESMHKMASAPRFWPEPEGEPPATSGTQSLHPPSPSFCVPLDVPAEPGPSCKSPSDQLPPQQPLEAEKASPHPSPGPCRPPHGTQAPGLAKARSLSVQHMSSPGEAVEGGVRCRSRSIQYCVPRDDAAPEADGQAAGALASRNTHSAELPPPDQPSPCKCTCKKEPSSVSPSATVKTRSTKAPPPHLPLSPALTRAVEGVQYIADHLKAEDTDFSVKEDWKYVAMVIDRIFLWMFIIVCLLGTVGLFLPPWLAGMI

[4] = molecular target: T1, Neuronal acetylcholine receptor; alpha4/beta2; experiment: Agonist activity at human recombinant alpha4beta2 nicotinic acetylcholine receptor expressed in HEK293 cells assessed as changes in intracellular calcium level at 100 uM by FLIPR relative to nicotine; format: functional, cell-based
[5] = molecular target: T2, Neuronal acetylcholine receptor subunit alpha-7 (Homo sapiens, UniProt P36544); experiment: Agonist activity at human recombinant alpha7 nicotinic acetylcholine receptor expressed in xenopus laevis oocytes by parallel oocyte electrophysiological assay; format: functional, cell-based
T2 sequence (P36544 whole entry): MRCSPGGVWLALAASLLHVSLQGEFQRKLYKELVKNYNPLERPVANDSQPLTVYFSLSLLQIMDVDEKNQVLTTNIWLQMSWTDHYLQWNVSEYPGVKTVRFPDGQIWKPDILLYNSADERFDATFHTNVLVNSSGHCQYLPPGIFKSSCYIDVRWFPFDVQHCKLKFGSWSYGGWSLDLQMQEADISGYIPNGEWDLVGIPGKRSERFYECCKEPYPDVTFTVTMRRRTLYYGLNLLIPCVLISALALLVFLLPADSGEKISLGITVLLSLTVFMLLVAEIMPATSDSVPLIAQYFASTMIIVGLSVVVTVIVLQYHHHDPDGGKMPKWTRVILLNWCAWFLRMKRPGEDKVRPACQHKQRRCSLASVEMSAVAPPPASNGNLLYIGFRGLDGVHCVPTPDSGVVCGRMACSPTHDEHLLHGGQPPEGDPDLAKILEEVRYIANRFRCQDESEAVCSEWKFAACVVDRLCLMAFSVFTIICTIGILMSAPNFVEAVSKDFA

[6] = molecular target: T2, Neuronal acetylcholine receptor subunit alpha-7; experiment: Agonist activity at human recombinant alpha7 nicotinic acetylcholine receptor expressed in xenopus laevis oocytes at 100 uM by parallel oocyte electrophysiological assay relative to acetylcholine; format: functional, cell-based

Sequence of Neuronal acetylcholine receptor; alpha4/beta2 (Rattus norvegicus, UniProt P09483+P12390) (P09483 whole entry): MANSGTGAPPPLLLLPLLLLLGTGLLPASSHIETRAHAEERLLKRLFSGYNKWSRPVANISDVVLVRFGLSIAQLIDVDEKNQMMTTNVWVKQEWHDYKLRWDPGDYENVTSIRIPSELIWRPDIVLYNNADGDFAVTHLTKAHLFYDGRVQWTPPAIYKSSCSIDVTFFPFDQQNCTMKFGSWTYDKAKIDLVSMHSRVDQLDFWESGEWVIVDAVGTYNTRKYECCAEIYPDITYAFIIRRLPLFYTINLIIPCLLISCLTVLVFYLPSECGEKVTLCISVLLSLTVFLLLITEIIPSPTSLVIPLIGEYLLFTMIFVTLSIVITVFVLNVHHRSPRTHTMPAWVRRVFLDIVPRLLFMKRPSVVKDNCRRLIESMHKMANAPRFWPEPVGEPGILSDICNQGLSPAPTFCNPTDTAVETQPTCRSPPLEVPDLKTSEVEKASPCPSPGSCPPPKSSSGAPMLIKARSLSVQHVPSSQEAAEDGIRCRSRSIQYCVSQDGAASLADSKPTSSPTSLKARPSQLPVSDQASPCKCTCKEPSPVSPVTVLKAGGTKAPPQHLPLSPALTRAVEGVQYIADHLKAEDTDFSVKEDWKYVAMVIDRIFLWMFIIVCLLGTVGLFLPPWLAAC
Sequence of Neuronal acetylcholine receptor; alpha4/beta2 (Rattus norvegicus, UniProt P09483+P12390) (P12390 whole entry): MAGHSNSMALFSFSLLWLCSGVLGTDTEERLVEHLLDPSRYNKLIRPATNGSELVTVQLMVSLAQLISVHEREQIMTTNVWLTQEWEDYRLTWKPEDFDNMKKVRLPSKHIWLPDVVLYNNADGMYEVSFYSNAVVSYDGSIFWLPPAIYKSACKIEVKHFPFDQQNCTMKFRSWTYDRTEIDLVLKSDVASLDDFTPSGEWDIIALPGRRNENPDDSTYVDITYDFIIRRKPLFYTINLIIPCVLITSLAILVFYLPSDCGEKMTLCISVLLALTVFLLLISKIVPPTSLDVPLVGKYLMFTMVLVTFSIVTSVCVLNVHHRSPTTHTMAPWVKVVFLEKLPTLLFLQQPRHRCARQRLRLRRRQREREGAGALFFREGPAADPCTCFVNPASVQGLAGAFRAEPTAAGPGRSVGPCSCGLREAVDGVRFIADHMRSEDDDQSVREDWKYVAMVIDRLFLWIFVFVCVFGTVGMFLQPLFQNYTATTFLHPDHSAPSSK

SMILES	Ki [1]	Ki [2]	Ratio Ki (Rattus norvegicus)	EC50 [3]	Activity [4]	EC50 [5]	Activity [6]
c1ccc(-c2ccc(N3C[C@H]4CNC[C@H]4C3)cc2)cc1	> 10000 nM	28 nM	> 350				
COc1cccc(-c2ccc(N3C[C@H]4CN(C)C[C@H]4C3)cn2)c1	> 100000 nM	5 nM	> 2000				
Cc1cccc(-c2ccc(N3C[C@H]4CN(C)C[C@H]4C3)cn2)c1	750 nM	6.7 nM	112				
CN1C[C@@H]2CN(c3ccc(-c4ccc5[nH]ccc5c4)nn3)C[C@@H]2C1	> 100000 nM	0.24 nM	> 400000	> 100000 nM	< 10%	320 nM	87%
CN1C[C@@H]2CN(c3cncc(-c4ccccc4)c3)C[C@@H]2C1	51 nM	> 10000 nM	> 190				
CN1C[C@@H]2CN(c3ccc(-c4ccccc4)nn3)C[C@@H]2C1	> 100000 nM	10.8 nM	> 9200	> 100000 nM	< 10%	4260 nM	52%
Cc1cccc(-c2ccc(N3C[C@H]4CN(C)C[C@H]4C3)nn2)c1	> 100000 nM	4.42 nM	> 22000				
c1ccc(-c2cncc(N3C[C@H]4CNC[C@H]4C3)c2)cc1	0.16 nM	4560 nM	28000	> 100000 nM	< 10%	> 100000 nM	< 10%
Cc1ccc(-c2ccc(N3C[C@H]4CN(C)C[C@H]4C3)nn2)cc1	> 100000 nM	11.6 nM	> 8600				
CN1C[C@@H]2CN(c3ccc(-c4cccc([N+](=O)[O-])c4)nc3)C[C@@H]2C1	2600 nM	30 nM	87				
c1ccc(-c2ccc(N3C[C@H]4CNC[C@H]4C3)nn2)cc1	5320 nM	17.5 nM	300	> 100000 nM	< 10%	1150 nM	29%
C[N+]1(C)C[C@H]2CN(c3ccc(Cl)nc3)C[C@H]2C1	210 nM	340 nM	1.6				
c1ccc(-c2ccc(N3C[C@H]4CNC[C@H]4C3)cn2)cc1	96 nM	8.4 nM	0.09				
c1cncc(N2C[C@H]3CNC[C@H]3C2)c1	0.12 nM	51 nM	420	40 nM	146%	4470 nM	129%
CN1C[C@@H]2CN(c3ccc(-c4ccccc4)cc3)C[C@@H]2C1	> 100000 nM	12 nM	> 8300				
c1ccc(COc2cncc(N3C[C@H]4CNC[C@H]4C3)c2)cc1	0.058 nM	> 10000 nM	> 170000				
CC(C)Oc1cncc(N2C[C@H]3CNC[C@H]3C2)c1	0.051 nM	> 10000 nM	> 200000				
c1ncc(N2C[C@H]3CNC[C@H]3C2)cc1N1CCOCC1	47 nM	> 10000 nM	> 210				
CN1C[C@@H]2CN(c3ccc(Cl)nc3)C[C@@H]2C1	38 nM	> 10000 nM	> 260				
COc1ccc(-c2ccc(N3C[C@H]4CN(C)C[C@H]4C3)nn2)cc1	> 100000 nM	22 nM	> 4500				

SMILES	Ki [1]	Ki [2]	Ratio Ki (Rattus norvegicus)	EC50 [3]	Activity [4]	EC50 [5]	Activity [6]
c1ccc(N2C[C@H]3CNC[C@H]3C2)nc1	260 nM	> 10000 nM	> 38				
Cc1ccccc1-c1ccc(N2C[C@H]3CN(C)C[C@H]3C2)nn1	> 10000 nM	690 nM	> 14				
COc1cncc(N2C[C@H]3CNC[C@H]3C2)c1	0.081 nM	240 nM	2900				
CCOc1cncc(N2C[C@H]3CNC[C@H]3C2)c1	0.035 nM	1440 nM	41000	370 nM	118%	> 100000 nM	37%
CN1C[C@@H]2CN(c3ccc(-c4cccc(-c5ccccc5)c4)nc3)C[C@@H]2C1	9800 nM	44 nM	220				
Brc1cncc(N2C[C@H]3CNC[C@H]3C2)c1	0.06 nM	66 nM	1100				
CCCOc1cncc(N2C[C@H]3CNC[C@H]3C2)c1	0.041 nM	> 10000 nM	> 240000				
CN1C[C@@H]2CN(c3ccc(-c4ccccc4)cn3)C[C@@H]2C1	> 100000 nM	17 nM	> 6000				
c1cc(N2C[C@H]3CNC[C@H]3C2)ccn1	> 10000 nM	> 10000 nM					
CN1C[C@@H]2CN(c3cccnc3)C[C@@H]2C1	26 nM	1590 nM	61				
Brc1ccc(N2C[C@H]3CNC[C@H]3C2)cn1	0.28 nM	290 nM	1000				
Clc1ccc(N2C[C@H]3CNC[C@H]3C2)cn1	0.2 nM	180 nM	900				
CN1C[C@@H]2CN(c3ccc(-c4cccc(O)c4)nn3)C[C@@H]2C1	21000 nM	7.9 nM	2660				
CN1C[C@@H]2CN(c3ccc(-c4ccccc4)nc3)C[C@@H]2C1	28000 nM	9.6 nM	0.0003				
Cc1cc(C)cc(-c2ccc(N3C[C@H]4CN(C)C[C@H]4C3)nn2)c1	> 100000 nM	> 10000 nM					
C[N+]1(C)C[C@H]2CN(c3ccc(-c4ccccc4)nn3)C[C@H]2C1	> 10000 nM	5.98 nM	> 1600				
CCN1C[C@@H]2CN(c3ccc(-c4ccccc4)nn3)C[C@@H]2C1	> 100000 nM	330 nM	> 300				
Oc1cncc(N2C[C@H]3CNC[C@H]3C2)c1	0.75 nM	> 10000 nM	> 13000				
c1ccc(-c2ccc(N3C[C@H]4CNC[C@H]4C3)nc2)cc1	> 100000 nM	30 nM	> 3300				
CN1C[C@@H]2CN(c3ccc(-c4ccc(O)cc4)nn3)C[C@@H]2C1	> 10000 nM	5.3 nM	> 1800				

Reference: ChEMBL document CHEMBL1137790, “Octahydropyrrolo[3,4-c]pyrrole: a diamine scaffold for construction of either alpha4beta2 or alpha7-selective nicotinic acetylcholine receptor (nAChR) ligands. Substitutions that switch subtype selectivity” (J Med Chem, 2009)
